Measurements taken from ChEMBL document CHEMBL1201862, “PubChem BioAssay data set” (2004).
The source made the active and inactive calls.

Tests used:
[1] = target: T1, Tyrosine-protein phosphatase non-receptor type 22 (Homo sapiens, UniProt Q9Y2R2); assay type: functional
T1 sequence (Q9Y2R2 whole entry): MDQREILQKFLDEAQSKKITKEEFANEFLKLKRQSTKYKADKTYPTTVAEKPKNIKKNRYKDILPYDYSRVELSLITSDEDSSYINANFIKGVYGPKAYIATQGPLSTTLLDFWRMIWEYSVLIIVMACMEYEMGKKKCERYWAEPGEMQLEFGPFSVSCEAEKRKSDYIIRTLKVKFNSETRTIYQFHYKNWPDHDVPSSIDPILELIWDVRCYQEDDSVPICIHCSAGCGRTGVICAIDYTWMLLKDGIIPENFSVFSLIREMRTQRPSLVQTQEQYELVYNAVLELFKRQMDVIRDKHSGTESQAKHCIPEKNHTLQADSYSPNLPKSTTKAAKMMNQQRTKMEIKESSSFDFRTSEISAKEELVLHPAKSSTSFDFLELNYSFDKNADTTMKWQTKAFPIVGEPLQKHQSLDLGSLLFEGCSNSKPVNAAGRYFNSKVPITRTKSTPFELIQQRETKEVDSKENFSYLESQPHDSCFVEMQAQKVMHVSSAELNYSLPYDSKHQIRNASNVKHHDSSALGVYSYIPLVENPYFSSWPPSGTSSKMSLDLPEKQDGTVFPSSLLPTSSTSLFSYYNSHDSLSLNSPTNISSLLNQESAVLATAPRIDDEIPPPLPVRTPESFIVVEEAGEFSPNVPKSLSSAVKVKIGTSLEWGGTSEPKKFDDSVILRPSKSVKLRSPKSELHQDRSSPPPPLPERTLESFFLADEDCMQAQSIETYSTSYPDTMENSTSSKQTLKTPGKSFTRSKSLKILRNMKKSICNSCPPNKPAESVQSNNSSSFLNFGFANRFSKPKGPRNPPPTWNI

[2] = target: T2, Tyrosine-protein phosphatase non-receptor type 7 (Homo sapiens, UniProt P35236); assay type: functional
T2 sequence (P35236 whole entry): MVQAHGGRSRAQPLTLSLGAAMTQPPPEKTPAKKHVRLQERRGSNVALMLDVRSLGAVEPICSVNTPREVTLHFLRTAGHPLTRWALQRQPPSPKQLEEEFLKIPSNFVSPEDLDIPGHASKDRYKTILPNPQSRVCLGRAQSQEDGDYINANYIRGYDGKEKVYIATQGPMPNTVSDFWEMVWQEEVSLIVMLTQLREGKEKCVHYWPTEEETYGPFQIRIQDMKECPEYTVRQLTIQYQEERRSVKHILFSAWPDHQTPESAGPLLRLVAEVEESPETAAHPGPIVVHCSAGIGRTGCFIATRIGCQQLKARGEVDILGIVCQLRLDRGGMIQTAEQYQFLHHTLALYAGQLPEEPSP

[3] = target: T3, Dual specificity protein phosphatase 6 (Rattus norvegicus, UniProt Q64346); test: MKP-3 phosphatase inhibitors, primary screen, biochemical, rat enzyme, in vitro (AID 425)
T3 sequence (Q64346 whole entry): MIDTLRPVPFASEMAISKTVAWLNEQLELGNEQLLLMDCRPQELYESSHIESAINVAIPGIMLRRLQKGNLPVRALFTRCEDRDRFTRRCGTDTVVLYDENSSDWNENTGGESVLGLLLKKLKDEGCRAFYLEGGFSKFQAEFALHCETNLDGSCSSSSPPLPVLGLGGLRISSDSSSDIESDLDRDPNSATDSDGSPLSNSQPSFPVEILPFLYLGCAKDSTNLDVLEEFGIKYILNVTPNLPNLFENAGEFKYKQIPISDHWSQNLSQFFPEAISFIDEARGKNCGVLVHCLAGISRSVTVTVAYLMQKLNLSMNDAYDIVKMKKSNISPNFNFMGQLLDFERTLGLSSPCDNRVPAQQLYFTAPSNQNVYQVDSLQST

[4] = target: T4, Aminopeptidase N (Plasmodium falciparum FcB1/Columbia, UniProt O96935); test: P. falciparum M1AAP inhibitors, biochemical, fluorogenic H-Leu-NHMec substrate, 1536-well (AID 1445); set-up: species or system Plasmodium falciparum 3D7, 3D7
T4 sequence (O96935 whole entry): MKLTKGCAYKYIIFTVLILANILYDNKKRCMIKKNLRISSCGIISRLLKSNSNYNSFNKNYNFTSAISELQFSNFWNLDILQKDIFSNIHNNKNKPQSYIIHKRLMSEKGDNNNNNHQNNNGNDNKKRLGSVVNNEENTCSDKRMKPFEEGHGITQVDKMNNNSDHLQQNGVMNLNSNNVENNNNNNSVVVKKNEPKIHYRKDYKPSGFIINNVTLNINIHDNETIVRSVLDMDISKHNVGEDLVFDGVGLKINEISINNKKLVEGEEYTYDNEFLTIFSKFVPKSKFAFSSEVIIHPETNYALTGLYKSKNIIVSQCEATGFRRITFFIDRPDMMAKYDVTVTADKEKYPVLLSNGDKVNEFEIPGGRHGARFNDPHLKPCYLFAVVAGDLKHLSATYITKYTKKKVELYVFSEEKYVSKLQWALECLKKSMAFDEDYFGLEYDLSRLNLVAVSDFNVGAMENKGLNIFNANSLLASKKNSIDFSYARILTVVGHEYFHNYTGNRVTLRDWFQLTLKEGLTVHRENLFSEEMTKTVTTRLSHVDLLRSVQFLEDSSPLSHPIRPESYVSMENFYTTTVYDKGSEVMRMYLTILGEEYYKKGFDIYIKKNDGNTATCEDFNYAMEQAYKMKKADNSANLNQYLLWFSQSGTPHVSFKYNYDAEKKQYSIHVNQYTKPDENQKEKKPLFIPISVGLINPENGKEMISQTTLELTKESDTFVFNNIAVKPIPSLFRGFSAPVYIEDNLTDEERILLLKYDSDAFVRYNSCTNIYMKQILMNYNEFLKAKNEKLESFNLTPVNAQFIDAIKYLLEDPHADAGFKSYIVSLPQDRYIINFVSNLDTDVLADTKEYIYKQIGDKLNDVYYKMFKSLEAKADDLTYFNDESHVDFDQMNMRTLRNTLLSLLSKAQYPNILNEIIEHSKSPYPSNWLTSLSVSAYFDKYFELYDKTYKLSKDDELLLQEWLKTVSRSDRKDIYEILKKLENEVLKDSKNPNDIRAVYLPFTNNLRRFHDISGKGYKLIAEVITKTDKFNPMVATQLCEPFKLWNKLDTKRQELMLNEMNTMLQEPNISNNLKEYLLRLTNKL

[5] = target: T1, Tyrosine-protein phosphatase non-receptor type 22; assay type: functional; remark: listed apart in the source
[6] = target: T1, Tyrosine-protein phosphatase non-receptor type 22; test: LYP1 Fluorescent Assay using OMFP substrate for In Vitro dose response studies. [Related pubchem assays (depositor defined):AID1779, AID1784, AID435024]
[7] = target: T5, Dual specificity protein phosphatase 3 (Homo sapiens, UniProt P51452); test: VHR1 phosphatase inhibitors, biochemical (AID 1878)
T5 sequence (P51452 whole entry): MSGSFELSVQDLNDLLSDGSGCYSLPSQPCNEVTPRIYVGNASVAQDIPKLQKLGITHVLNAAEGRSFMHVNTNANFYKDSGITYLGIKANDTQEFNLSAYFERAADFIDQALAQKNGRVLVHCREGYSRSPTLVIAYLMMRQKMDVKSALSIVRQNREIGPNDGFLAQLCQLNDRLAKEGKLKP

[8] = target: T5, Dual specificity protein phosphatase 3; test: VHR1 phosphatase inhibitors, primary screen, biochemical, absorbance, uHTS (AID 1654)
[9] = target: T1, Tyrosine-protein phosphatase non-receptor type 22; test: inhibitors of LYP phosphatase, biochemical, fluorescence intensity, uHTS (AID 1779)
[10] = target: T2, Tyrosine-protein phosphatase non-receptor type 7; test: HTS HePTP Fluorescent Assay using OMFP substrate for In Vitro dose response studies. [Related pubchem assays (depositor defined):AID1059, AID1077, AID1784, AID2068, AID2085, AID435032, AID521]; assay type: functional
[11] = Luminescence Cell-Based Dose Retest to Confirm Inhibitors of Cancer Stem Cells. [Related pubchem assays (depositor defined):AID2717, AID2721]; assay type: functional; settings: Homo sapiens
[12] = cytotoxicity in HMLE control line with eGFP shRNA, dose response, counter-screen for HMLE_sh_ECad selective toxicity project, cell-based, HMLE_sh_eGFP, luminescence (AID 463074); assay type: functional, Homo sapiens;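 note: HMLE human mammary epithelial cells expressing control shRNA against eGFP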
[13] = target: Lysine-specific demethylase 4A (Homo sapiens, UniProt O75164); test: JMJD2A histone demethylase inhibitors, dose response, selectivity assay for GASC-1 inhibitor project, biochemical, DELFIA europium, cherry-picked samples (AID 488840)
Lysine-specific demethylase 4A, sequence (O75164 whole entry): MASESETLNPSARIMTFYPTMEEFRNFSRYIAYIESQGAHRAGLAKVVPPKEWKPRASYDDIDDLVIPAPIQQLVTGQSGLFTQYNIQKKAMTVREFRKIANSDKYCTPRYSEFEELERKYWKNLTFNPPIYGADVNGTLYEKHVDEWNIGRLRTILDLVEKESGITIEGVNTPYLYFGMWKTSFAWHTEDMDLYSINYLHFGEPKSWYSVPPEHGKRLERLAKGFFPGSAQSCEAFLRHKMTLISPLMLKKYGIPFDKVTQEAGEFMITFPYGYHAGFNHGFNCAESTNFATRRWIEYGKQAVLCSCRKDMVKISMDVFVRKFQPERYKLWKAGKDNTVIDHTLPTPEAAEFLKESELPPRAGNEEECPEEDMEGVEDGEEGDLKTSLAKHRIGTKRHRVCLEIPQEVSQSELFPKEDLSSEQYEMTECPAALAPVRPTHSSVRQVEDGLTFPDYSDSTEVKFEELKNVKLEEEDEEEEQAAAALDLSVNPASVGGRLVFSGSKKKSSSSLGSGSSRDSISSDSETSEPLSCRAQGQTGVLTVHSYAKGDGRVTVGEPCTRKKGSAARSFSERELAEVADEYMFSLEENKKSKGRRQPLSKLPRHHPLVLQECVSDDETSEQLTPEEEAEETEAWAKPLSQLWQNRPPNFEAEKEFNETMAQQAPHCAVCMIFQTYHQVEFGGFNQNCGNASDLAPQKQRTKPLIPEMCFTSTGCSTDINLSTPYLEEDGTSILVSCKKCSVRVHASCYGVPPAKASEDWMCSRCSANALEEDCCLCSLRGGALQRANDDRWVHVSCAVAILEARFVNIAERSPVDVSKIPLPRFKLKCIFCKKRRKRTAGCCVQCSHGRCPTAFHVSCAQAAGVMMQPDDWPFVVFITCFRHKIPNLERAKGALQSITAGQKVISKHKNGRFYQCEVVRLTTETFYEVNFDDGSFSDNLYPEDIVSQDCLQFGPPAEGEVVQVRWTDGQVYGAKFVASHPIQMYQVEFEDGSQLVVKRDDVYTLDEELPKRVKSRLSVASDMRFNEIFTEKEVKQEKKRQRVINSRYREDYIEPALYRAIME

[14] = target: T6, Lysine-specific demethylase 4C (Homo sapiens, UniProt Q9H3R0); test: GASC-1 (JMJD2C) histone demethylase inhibitors, dose response, biochemical, DELFIA europium, cherry-picked samples (AID 488835); assay type: functional
T6 sequence (Q9H3R0 whole entry): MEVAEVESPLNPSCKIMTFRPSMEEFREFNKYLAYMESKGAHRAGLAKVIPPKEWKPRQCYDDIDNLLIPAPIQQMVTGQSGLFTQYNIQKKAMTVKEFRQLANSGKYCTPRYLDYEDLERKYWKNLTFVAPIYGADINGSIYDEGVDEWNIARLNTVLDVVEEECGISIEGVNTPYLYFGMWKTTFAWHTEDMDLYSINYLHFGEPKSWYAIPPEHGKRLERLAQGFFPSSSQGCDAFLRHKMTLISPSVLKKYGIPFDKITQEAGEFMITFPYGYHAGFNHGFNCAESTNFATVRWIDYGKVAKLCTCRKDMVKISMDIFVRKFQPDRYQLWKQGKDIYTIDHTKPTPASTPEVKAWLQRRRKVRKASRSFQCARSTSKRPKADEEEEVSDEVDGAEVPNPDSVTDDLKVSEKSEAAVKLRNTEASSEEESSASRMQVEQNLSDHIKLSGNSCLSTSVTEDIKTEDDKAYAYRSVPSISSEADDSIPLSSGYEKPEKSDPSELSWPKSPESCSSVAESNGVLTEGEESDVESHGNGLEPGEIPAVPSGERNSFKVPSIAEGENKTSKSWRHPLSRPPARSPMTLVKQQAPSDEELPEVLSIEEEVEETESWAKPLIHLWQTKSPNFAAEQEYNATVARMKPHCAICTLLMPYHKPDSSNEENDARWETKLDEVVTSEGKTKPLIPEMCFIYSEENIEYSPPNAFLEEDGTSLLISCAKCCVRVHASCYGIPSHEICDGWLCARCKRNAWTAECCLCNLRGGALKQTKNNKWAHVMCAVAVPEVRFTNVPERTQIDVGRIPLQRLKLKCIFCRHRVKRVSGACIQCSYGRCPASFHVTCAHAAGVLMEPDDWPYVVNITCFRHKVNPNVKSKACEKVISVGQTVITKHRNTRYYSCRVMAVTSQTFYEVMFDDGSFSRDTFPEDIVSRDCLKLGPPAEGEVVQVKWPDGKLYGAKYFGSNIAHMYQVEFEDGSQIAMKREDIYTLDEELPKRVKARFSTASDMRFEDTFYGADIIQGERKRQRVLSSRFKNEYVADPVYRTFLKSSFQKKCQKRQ

[15] = target: Large T antigen (Simian virus 40, UniProt P03070); assay type: functional, Betapolyomavirus macacae;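 note: Confirmatory-stage PubChem screen for compounds that inhibit SV40 T antigen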
Large T antigen, sequence (P03070 whole entry): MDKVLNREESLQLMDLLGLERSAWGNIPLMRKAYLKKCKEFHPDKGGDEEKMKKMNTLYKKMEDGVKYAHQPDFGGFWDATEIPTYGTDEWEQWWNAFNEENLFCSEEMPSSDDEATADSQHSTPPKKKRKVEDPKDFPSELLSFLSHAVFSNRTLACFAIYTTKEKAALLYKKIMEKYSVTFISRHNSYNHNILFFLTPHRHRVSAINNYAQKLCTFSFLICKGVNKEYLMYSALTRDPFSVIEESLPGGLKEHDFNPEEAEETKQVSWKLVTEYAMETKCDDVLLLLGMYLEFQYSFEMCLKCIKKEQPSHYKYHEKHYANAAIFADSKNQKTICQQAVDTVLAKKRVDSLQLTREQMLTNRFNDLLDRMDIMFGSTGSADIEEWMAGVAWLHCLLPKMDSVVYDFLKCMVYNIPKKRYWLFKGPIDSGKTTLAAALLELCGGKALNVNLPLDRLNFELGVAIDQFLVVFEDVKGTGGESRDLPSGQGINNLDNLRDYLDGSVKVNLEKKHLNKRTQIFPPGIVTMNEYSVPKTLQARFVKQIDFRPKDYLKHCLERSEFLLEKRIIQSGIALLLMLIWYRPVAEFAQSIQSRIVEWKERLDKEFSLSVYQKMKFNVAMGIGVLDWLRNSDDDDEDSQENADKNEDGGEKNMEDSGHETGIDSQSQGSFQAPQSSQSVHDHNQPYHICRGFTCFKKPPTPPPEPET

[16] = test system: HEK293; test: cells; settings: Homo sapiens
[17] = inhibitors of HIV Env-driven cell fusion, dose response, cherry-pick (AID 652057); assay type: functional, cell-based
[18] = ZM109 Env clade C HIV-1 fusion inhibitors, dose response, HeLa effector, CEM target cells, luciferase, cherry-pick (AID 652058); assay type: functional, cell-based
[19] = inhibitors of clade B AD8 Env fusion, dose response, cell-based, cherry-pick (AID 652062); assay type: functional;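 note: luciferase signal from cell-cell fusion driven by HIV-1 clade B AD8 Env; potency is for inhibitors of fusion seen as a drop in luminescence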
[20] = test system: HEK293; test: cells; settings: Homo sapiens; remark: listed apart in the source
[21] = off-target signal loss in HeLa-CEM21 co-culture – HeLa F-luc CTL cells, cherry-picked, counter-screen for HIV-1 Env fusion inhibitor project, dose response (AID 652040); assay type: functional, cell-based;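 note: potency for signal decrease marking cytotoxic or nonspecific inhibition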
[22] = target: Albumin (Bos taurus, UniProt P02769); test: Counterscreen for inhibitors of T-cell receptor (TCR)-CD3 interaction: Fluorescence-based biochemical high throughput dose response assay to identify inhibitors of T-cell receptor (TCR)-CD3 interaction using a TAMRA-labeled BSA probe.; assay type: functional
Albumin, sequence (P02769 whole entry, the tested form may be a part): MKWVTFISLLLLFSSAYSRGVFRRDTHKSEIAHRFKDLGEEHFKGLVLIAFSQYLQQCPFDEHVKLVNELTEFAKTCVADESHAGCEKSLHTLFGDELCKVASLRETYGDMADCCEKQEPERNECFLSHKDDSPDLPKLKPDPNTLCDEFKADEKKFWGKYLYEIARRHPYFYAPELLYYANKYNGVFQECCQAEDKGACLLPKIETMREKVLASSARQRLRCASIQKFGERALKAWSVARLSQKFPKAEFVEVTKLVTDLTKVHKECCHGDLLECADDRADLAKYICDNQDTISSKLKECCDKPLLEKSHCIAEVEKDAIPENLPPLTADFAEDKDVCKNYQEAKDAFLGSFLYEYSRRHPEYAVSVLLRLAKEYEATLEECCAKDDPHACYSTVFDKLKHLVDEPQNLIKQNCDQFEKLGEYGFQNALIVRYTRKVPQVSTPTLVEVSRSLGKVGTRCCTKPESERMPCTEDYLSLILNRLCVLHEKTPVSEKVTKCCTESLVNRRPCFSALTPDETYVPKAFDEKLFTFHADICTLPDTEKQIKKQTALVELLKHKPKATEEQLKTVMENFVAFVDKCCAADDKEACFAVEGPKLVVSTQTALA

[23] = target: T7, Carboxy-terminal domain RNA polymerase II polypeptide A small phosphatase 1 (Homo sapiens, UniProt Q9GZU7); test: inhibitors of CTDSP1, concentration-response testing, biochemical assay, absorbance-based, actives from ultra-high-throughput screening (AID 540297); assay type: functional
T7 sequence (Q9GZU7 whole entry): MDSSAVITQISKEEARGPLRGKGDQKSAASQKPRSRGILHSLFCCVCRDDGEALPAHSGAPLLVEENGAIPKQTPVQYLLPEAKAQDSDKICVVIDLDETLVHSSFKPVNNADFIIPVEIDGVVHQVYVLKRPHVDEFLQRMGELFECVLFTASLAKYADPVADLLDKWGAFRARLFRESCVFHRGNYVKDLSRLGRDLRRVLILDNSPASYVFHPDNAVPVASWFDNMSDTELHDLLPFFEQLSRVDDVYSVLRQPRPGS

SMILES: COc1ccc(/N=C2\S/C(=C\c3ccc(OCC(=O)O)cc3)C(=O)N2CCc2c[nH]c3ccccc23)cc1
- IC50 [1]: < 1.24 µM (active)
- IC50 [2]: 2.52 µM (active)
- IC50 [3]: > 158 µM (not active)
- IC50 [4]: 75.7 µM (active)
- IC50 [5]: < 1.24 µM (active)
- IC50 [6]: > 99 µM (inactive)
- IC50 [7]: 2.43 µM (active)
- IC50 [8]: 3.49 µM (active)
- IC50 [9]: > 99 µM (inactive)
- IC50 [10]: > 99 µM (inactive)

SMILES: COc1cccc(-c2sc3ccc(OC)cc3c2-c2ccc(OCCN3CCOCC3)cc2)c1
- AC50 [11]: 2.09 µM (active)
- AC50 [12]: 3.73 µM (inconclusive)

SMILES: Cc1ccc(CSc2ccc(-c3ccc4c(c3)OCO4)nn2)cc1
- AC50 [11]: 1.46 µM (active)
- AC50 [12]: 43.6 µM (active)

SMILES: COc1ccc(NN=Nc2nc3c(=O)n(C)c(=O)n(C)c3[nH]2)cc1
- AC50 [13]: > 60 µM (inactive)
- AC50 [14]: 8.08 µM (active)
- IC50 [15]: 36.8 µM (active)

SMILES: CCN(C[C@H]1N[C@@](CC)(C(=O)OC)[C@H]2C(=O)N(Cc3ccccc3)C(=O)[C@@H]12)S(=O)(=O)c1ccc(C)cc1
- EC50 [16]: > 59.6 µM (inactive)
- AC50 [17]: 2.36 µM (active)
- AC50 [18]: 2.37 µM (active)
- AC50 [19]: 4.32 µM (active)
- EC50 [20]: > 59.6 µM (inactive)
- AC50 [21]: 3.4 µM (active)

SMILES: Cc1ccc(C(=O)NNC(=O)c2ccc3ccccc3c2O)cc1
- AC50 [13]: 6.59 µM (active)
- IC50 [22]: > 94 µM (inactive)
- IC50 [23]: 7.74 µM (active)
- AC50 [14]: 8.8 µM (active)
